Molecular target: T1, hFASN enzyme (full length) (Homo sapiens, UniProt P49327)
T1 construct: 10 μL hFASN enzyme (full length, 300 ng, purified in house); made in house
Test: Fatty Acid Synthase (FASN) inhibition scintillation proximity assay
Format: biochemical
Settings: for inhibition at 10 µM: read-out: Human FASN % inhibition @ 10 μM, 10 μM test compound; for IC50: read-out: Human FASN pIC50 (converted)
Procedure, shortened: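 Purified full-length hFASN (300 ng) converts ^3H-acetyl-CoA plus malonyl-CoA to ^3H-palmitate in 100 mM KH2PO4 pH 7.5, 1 mM DTT; compounds tested at 0.01–30 μM. Product captured on streptavidin imaging beads and read by LEADseeker at 610 nm after ≥24 h; 4-parameter logistic fit versus controls.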

T1 sequence (P49327 whole entry): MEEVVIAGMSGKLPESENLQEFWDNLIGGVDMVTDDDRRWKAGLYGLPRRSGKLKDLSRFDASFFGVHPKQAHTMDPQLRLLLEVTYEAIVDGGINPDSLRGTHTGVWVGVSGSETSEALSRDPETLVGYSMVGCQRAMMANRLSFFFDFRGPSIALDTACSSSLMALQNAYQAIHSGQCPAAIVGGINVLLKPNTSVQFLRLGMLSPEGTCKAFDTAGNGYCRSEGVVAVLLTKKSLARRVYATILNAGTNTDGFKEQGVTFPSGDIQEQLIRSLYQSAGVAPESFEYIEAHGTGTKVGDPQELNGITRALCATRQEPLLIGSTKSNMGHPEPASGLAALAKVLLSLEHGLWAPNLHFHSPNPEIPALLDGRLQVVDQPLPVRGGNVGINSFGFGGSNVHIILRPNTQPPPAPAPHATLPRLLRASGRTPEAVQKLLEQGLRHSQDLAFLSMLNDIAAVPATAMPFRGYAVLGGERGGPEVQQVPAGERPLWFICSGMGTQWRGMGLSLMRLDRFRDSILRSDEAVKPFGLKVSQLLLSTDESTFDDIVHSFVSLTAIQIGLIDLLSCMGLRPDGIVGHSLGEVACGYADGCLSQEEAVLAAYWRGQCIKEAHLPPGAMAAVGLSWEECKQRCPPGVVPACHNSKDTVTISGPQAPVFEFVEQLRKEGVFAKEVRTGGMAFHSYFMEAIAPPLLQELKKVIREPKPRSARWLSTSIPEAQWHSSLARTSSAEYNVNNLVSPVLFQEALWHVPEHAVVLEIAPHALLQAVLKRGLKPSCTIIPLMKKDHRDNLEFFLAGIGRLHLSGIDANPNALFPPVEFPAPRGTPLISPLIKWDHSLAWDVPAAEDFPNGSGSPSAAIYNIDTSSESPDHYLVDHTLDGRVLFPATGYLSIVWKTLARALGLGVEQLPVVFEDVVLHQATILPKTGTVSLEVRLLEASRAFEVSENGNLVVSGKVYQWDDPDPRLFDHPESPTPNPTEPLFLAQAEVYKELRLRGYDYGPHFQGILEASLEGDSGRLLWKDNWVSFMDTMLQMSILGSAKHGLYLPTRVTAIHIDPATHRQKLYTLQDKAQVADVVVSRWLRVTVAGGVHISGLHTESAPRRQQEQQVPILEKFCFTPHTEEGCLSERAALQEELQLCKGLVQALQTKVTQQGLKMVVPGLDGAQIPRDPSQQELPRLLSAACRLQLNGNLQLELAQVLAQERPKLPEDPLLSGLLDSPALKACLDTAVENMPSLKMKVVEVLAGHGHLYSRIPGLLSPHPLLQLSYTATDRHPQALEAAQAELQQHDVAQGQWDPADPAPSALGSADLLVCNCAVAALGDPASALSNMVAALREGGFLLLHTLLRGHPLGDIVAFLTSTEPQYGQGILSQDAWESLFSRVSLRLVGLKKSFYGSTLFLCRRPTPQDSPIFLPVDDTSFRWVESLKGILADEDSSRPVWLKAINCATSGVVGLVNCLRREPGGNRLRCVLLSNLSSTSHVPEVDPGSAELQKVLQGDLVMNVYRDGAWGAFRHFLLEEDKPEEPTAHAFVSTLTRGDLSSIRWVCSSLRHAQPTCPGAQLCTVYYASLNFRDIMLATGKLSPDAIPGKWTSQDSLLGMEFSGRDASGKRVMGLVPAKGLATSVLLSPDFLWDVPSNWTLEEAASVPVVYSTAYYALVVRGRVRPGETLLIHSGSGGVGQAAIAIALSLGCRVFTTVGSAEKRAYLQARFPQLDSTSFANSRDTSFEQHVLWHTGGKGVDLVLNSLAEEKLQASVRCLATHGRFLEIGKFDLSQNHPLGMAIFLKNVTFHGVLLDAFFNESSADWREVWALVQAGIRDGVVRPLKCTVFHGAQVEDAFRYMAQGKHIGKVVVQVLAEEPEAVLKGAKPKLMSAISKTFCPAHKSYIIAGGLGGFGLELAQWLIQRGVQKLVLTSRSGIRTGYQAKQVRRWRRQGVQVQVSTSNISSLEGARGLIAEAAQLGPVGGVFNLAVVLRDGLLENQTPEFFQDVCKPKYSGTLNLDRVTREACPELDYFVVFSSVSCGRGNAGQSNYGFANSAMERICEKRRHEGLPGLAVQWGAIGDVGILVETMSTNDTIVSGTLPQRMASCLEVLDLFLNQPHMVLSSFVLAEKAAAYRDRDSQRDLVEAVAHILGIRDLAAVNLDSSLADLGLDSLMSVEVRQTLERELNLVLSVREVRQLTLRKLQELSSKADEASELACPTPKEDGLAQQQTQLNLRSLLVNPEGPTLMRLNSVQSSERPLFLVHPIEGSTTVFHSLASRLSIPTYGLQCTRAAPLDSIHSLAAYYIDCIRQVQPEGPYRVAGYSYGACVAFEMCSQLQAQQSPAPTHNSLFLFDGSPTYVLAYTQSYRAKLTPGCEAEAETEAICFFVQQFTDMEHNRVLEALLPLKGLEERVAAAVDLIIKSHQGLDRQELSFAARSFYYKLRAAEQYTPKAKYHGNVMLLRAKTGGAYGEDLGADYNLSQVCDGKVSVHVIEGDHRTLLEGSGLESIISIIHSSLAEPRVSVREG

`Cn1cc(-c2ccc(-c3ccc(C4=NC5(CCOCC5)C(=O)N4C[C@@H]4CCN(C(=O)C(F)(F)F)C4)cc3)cc2)cn1` [compound 659, 2-[4′-(1-Methyl-1H-pyrazol-4-yl)biphenyl-4-yl]-3-{[(3R)-1-(trifluoroacetyl)pyrrolidin-3-yl]methyl}-8-oxa-1,3-diazaspiro[4.5]dec-1-en-4-one] showed an inhibition at 10 µM of 38% and an IC50 of roughly 8.32 µM.
`Cn1cc(-c2ccc(-c3ccc(C4=NC5(CCOCC5)C(=O)N4C[C@@H]4CCN(C(=O)N5CCCC5)C4)cc3)cc2)cn1` [compound 660, 2-[4′-(1-Methyl-1H-pyrazol-4-yl)biphenyl-4-yl]-3-{[(3S)-1-(pyrrolidin-1-ylcarbonyl)pyrrolidin-3-yl]methyl}-8-oxa-1,3-diazaspiro[4.5]dec-1-en-4-one] was tested, and the inhibition at 10 µM was 76% and the IC50 was 2.24 µM.
Compound `O=C(c1nccs1)N1CC[C@@H](CN2C(=O)C3(CCOCC3)N=C2c2ccc(-c3ccc4cccnc4c3)cc2)C1` [compound 666, 2-(4-Quinolin-7-ylphenyl)-3-{[(3R)-1-(1,3-thiazol-2-ylcarbonyl)pyrrolidin-3-yl]methyl}-8-oxa-1,3-diazaspiro[4.5]dec-1-en-4-one] has an inhibition at 10 µM of 62% and an IC50 of roughly 5.01 µM.
`CC(O)C(=O)N1CC[C@@H](CN2C(=O)C3(CCOCC3)N=C2c2ccc(-c3ccc4occc4c3)cc2)C1` (stereo partly drawn) [compound 668, 2-[4-(1-Benzofuran-5-yl)phenyl]-3-{[(3R)-1-(2-hydroxypropanoyl)pyrrolidin-3-yl]methyl}-8-oxa-1,3-diazaspiro[4.5]dec-1-en-4-one] was tested, and the inhibition at 10 µM was 86% and the IC50 was 1.17 µM.
`O=C(N1CC[C@@H](CN2C(=O)C3(CCOCC3)N=C2c2ccc(-c3ccc4occc4c3)cc2)C1)C(F)(F)F` [compound 670, 2-[4-(1-Benzofuran-5-yl)phenyl]-3-{[(3R)-1-(trifluoroacetyl)pyrrolidin-3-yl]methyl}-8-oxa-1,3-diazaspiro[4.5]dec-1-en-4-one] showed an inhibition at 10 µM of 56% and an IC50 of roughly 7.59 µM.
Compound `O=C(N1CCCC1)N1CC[C@@H](CN2C(=O)C3(CCOCC3)N=C2c2ccc(-c3ccc4occc4c3)cc2)C1` [compound 671, 2-[4-(1-Benzofuran-5-yl)phenyl]-3-{[(3S)-1-(pyrrolidin-1-ylcarbonyl)pyrrolidin-3-yl]methyl}-8-oxa-1,3-diazaspiro[4.5]dec-1-en-4-one] has an inhibition at 10 µM of 76% and an IC50 of 1.66 µM.
`CC(O)C(=O)N1CC[C@@H](CN2C(=O)C3(CCOCC3)N=C2c2ccc(-c3ccc4c(cnn4C)c3)cc2)C1` (stereo partly drawn) [compound 673, 3-{[(3R)-1-(2-Hycdroxypropanoyl)pyrrolidin-3-yl]methyl}-2-[4-(1-methyl-1H-indazol-5-yl)phenyl]-8-oxa-1,3-diazaspiro[4.5]dec-1-en-4-one] showed an inhibition at 10 µM of 61% and an IC50 of 5.5 µM.
Work on `Cn1ncc2cc(-c3ccc(C4=NC5(CCOCC5)C(=O)N4C[C@@H]4CCN(C(=O)N5CCCC5)C4)cc3)ccc21` [compound 675] yielded an inhibition at 10 µM of 66% and an IC50 of 2.82 µM.
With `CC(O)C(=O)N1CC[C@@H](CN2C(=O)C3(CCOC3)N=C2c2ccc(-c3ccc(-c4cnn(C)c4)cc3)cc2)C1` (stereo partly drawn) [compound 677, 3-{[(3R)-1-(2-Hydroxypropanoyl)pyrrolidin-3-yl]methyl}-2-[4′-(1-methyl-1H-pyrazol-4-yl)biphenyl-4-yl]-7-oxa-1,3-diazaspiro[4.4]non-1-en-4-one] the inhibition at 10 µM was 63% and the IC50 was roughly 7.08 µM.
In the case of `Cn1cc(-c2ccc(-c3ccc(C4=NC5(CCOC5)C(=O)N4C[C@@H]4CCN(C(=O)N5CCCC5)C4)cc3)cc2)cn1` (stereo partly drawn) [compound 679, 2-[4′-(1-Methyl-1H-pyrazol-4-yl)biphenyl-4-yl]-3-{[(3S)-1-(pyrrolidin-1-ylcarbonyl)pyrrolidin-3-yl]methyl}-7-oxa-1,3-diazaspiro[4.4]non-1-en-4-one], the inhibition at 10 µM is reported as 57% and the IC50 is reported as roughly 6.17 µM.
`O=C(N1CC[C@@H](CN2C(=O)C3(CCOC3)N=C2c2ccc(-c3ccc4cccnc4c3)cc2)C1)C(F)(F)F` (stereo partly drawn) [compound 684, 2-(4-Quinolin-7-ylphenyl)-3-{[(3R)-1-(trifluoroacetyl)pyrrolidin-3-yl]methyl}-7-oxa-1,3-diazaspiro[4.4]non-1-en-4-one] gave an inhibition at 10 µM of 61% and an IC50 of 4.27 µM.

Reference: US10077261B2, “Imidazolin-5-one derivative useful as FASN inhibitors for the treatment of cancer” (Janssen Pharmaceutica NV, priority 2012, dated 2018)
